Source: paper PMC10786692 (The Journal of Clinical Investigation, 2024)

Columns and labels:
phospho-(S635)Rad50 = assay: Paired tumor biopsy p-Rad50 IHC; type: in vivo, human; conditions: four paired biopsies, after 2-week dosing
Protocol: (§1) PD sampling took place at baseline (within 7 days prior to dosing) and between days 15 and 22 of dosing (day 14 for intermittent dosing cohorts). PD samples included PBMCs and tumor biopsies. PBMCs were analyzed by immunofluorescence for γ^(S139)H2AX, p-^(S345)Chk1, and total Chk1, as described in Supplemental Methods. Paired tumor biopsies were formalin fixed and analyzed for nuclear p-^(S635)Rad50 and γH2AX by IHC. […]
(§2) signatures for heatmap construction were used from MSigDB (49) and cell-type-related transcripts from NanoString annotations and Bindea et al (50). Cell-type deconvolution was performed using CIBERSORTx (51).
(§3) Supplementary Pharmacodynamic methods
(§4) Formalin fixed paraffin-embedded tumor samples were used. […] H-score was calculated using HALO image analysis (Indica Labs). […] Nuclear ATM (Abcam 32420) IHC staining was carried out on the Ventana autostainer, using DAB detection and assessed by H-score, but samples were only deemed acceptable if lymphocyte staining (internal control) was at least 2+ (moderate) intensity. Cyclin E1 (Invitrogen HE12) staining was carried out on the Ventana autostainer, using DAB detection and the H-score was quantified using HALO image analysis (Indica Labs). Ki67 (Mib-1, Dako M7240) was scored by percent nuclear positivity using a global unweighted method, scoring 4 areas of 100 cells. […]

γH2AX = assay: Paired tumor biopsy γH2AX IHC; type: in vivo, human; conditions: four paired biopsies, after 2-week dosing
Protocol: as §1, §2, §3, §4

plasma cytokines = assay: Plasma cytokines, Bio-Plex Pro 27-plex; type: in vivo, human; conditions: after 2 weeks of treatment
Protocol: DNA-Seq of tumor and matched buffy coats was either by whole-exome sequencing or a custom-designed panel targeting all exons of genes of interest for 173 genes, including potential markers of sensitivity to ATRi. ACK-lysed whole blood or PBMCs were stained for flow cytometry using 8 multicolor panels. Plasma cytokines were assessed using the Bio-Plex Pro 27-Plex Panel (Bio-Rad). See Supplemental Methods for full information.
Plasma was taken from EDTA tubes (BD vacutainer) used for buffy coat or immune profiling samples. Plasma was removed, re-spun and aliquoted into 1.5 mL tubes and stored at -70 OC until analysis. Samples were run in duplicate using the Bio-Plex Pro Human Cytokine 27-plex panel (Bio-Rad) as per manufacturer’s instructions.
Criteria for Dose Limiting Toxicity
1. Hematological toxicity
1. Grade 3 thrombocytopenia with bleeding
2. Grade 4 thrombocytopenia
3. Grade 4 neutropenia lasting >7 days in the absence of growth factor
4. Grade 4 neutropenia of any duration accompanied by fever ≥ 38.5°C and/or systemic infection
5. Any other grade ≥4 hematological toxicity
2. Cardiovascular toxicity
1. Clinically significant hypotension defined as an asymptomatic fall in systolic blood pressure more than 20mmHg to below 70mmHg persisting for at least 10 minutes
2. Symptomatic orthostatic fall in systolic blood pressure of more than 20mmHg compared to resting supine blood pressure
3. Prolongation of QTc >0.5 seconds (using an appropriate correction […]
3. Gastrointestinal/hepatic toxicity
1. ALT or AST >5 times ULN; ALP >5 times ULN with elevated gamma- GT

[1] = Change in full blood count parameters with time (bone marrow toxicity); type: in vivo, human; set-up: Lymphocyte change / Monocyte change / Hb change: unit not given here; conditions: for Neutrophil / Platelet: in 10^9/L (unit assumed)
Protocol: Patients were assessed weekly during cycle 1 and twice weekly thereafter, with safety assessments including blood hematology and biochemistry, physical examination, and toxicity scoring. Safety and tolerability were assessed using Common Terminology Criteria for Adverse Events (CTCAE), version 4.03.

[2] = preclinical monotherapy; cited from earlier work
[3] = part B, 160mg (continuous), change from relative day 0, per patient and time point
[4] = part B, 160mg (continuous), per patient and time point
[5] = patient B138, part B, 160mg (intermittent), time point C1D1
[6] = patient B466, part B, 160mg (intermittent), C26D15, relative day 589
[7] = patient B466, part B, 160mg (intermittent), C26D15, relative day 589, change from Day 0
[8] = patient B466, part B, 160mg (intermittent), C27D15, relative day 603
[9] = patient B466, part B, 160mg (intermittent), C27D15, relative day 603, change from Day 0
[10] = patient B466, part B, 160mg (intermittent), C28D15, relative day 617
[11] = patient B466, part B, 160mg (intermittent), C28D15, relative day 617, change from Day 0
[12] = patient B466, part B, 160mg (intermittent), C29D15, relative day 645
[13] = patient B466, part B, 160mg (intermittent), C29D15, relative day 645, change from Day 0
[14] = patient B466, part B, 160mg (intermittent), C30D15, relative day 673
[15] = patient B466, part B, 160mg (intermittent), C30D15, relative day 673, change from Day 0
[16] = patient B466, part B, 160mg (intermittent), C31D15, relative day 701
[17] = patient B466, part B, 160mg (intermittent), C31D15, relative day 701, change from Day 0

SMILES: C[C@@H]1COCCN1c1cc(C2([S@](C)(=N)=O)CC2)nc(-c2cc[nH]c3nccc2-3)n1 [ceralasertib]
- p-Rad50 in paired tumor biopsies (phospho-(S635)Rad50): upregulation
- Number of γH2AX-positive cells in paired tumor biopsies (γH2AX): increase
- Circulating CCL2 level (plasma cytokines): increase
- Circulating CCL4 level (plasma cytokines): decrease
- Circulating CCL5 level (plasma cytokines): decrease
- Platelets and other hematological parameters, intermittent versus continuous schedule ([1]; 160 mg BD, recovering in the treatment break): more favorable
- Hb change [1, 3]: 0
- Lymphocyte change [1, 3]: 0
- Monocyte change [1, 3]: 0
- Platelet change [1, 3]: 0
- Neutrophil [1, 4]: 3.29
- Platelet [1, 4]: 210
- Hb ([1]; part B, dose cohort 160mg (continuous), per patient and time point): 13.7
- Hb [1, 5]: 11.5
- Neutrophil [1, 5]: 8.54
- Platelet [1, 5]: 213
- Hb [1, 6]: 101 g/L
- Lymphocyte change [1, 7]: 0.4
- Monocyte change [1, 7]: 0.2
- Platelet change [1, 7]: 125
- Neutrophil [1, 6]: 4.5
- Platelet [1, 6]: 571
- Hb [1, 8]: 96
- Lymphocyte change [1, 9]: 0
- Monocyte change [1, 9]: -0.8
- Platelet change [1, 9]: -198
- Neutrophil [1, 8]: 2.7
- Platelet [1, 8]: 248
- Hb [1, 10]: 99
- Lymphocyte change [1, 11]: 0
- Monocyte change [1, 11]: 0.2
- Platelet change [1, 11]: 142
- Neutrophil [1, 10]: 2.7
- Platelet [1, 10]: 588
- Hb [1, 12]: 100 g/L
- Lymphocyte change [1, 13]: 0.5
- Monocyte change [1, 13]: -0.6
- Platelet change [1, 13]: 143
- Neutrophil [1, 12]: 4.6
- Platelet [1, 12]: 589
- Hb [1, 14]: 103 g/L
- Lymphocyte change [1, 15]: 0.5
- Monocyte change [1, 15]: 0.1
- Platelet change [1, 15]: 118
- Neutrophil [1, 14]: 3.9
- Platelet [1, 14]: 564
- Hb [1, 16]: 101 g/L
- Monocyte change [1, 17]: 0.2
- Platelet change [1, 17]: 172
- Platelet [1, 16]: 618
- GI50 [2]: ~1000 nM
